From patent publication US10173991B2, “Sulfone amide linked benzothiazole inhibitors of endothelial lipase” (BRISTOL-MYERS SQUIBB COMPANY, priority 2014, dated 2019)
Read-outs that look alike come from different tables or passages of the source.

Target: Endothelial lipase (EL) (Homo sapiens (Human), UniProt Q9Y5X9)
Experiment: Endothelial lipase (EL) enzymatic assay with fluorescent substrate A10070 in DMPG vesicles
Format: biochemical
Method in brief: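 EL from conditioned medium of HT-1080 cells engineered to overexpress endogenous EL; HL partially purified from conditioned medium of HL-overexpressing COS cells. Enzyme preincubated with compound 30 min at 37° C in 50 mM HEPES pH 8.0, 50 mM NaCl, 1 mM CaCl2; DMPG vesicles carrying FRET substrate (0.11 mole fraction) then added.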

[1] = EL from conditioned media of HT-1080 cells, 30 min preincubation at 37° C.

Endothelial lipase (EL), sequence (Q9Y5X9 21-500): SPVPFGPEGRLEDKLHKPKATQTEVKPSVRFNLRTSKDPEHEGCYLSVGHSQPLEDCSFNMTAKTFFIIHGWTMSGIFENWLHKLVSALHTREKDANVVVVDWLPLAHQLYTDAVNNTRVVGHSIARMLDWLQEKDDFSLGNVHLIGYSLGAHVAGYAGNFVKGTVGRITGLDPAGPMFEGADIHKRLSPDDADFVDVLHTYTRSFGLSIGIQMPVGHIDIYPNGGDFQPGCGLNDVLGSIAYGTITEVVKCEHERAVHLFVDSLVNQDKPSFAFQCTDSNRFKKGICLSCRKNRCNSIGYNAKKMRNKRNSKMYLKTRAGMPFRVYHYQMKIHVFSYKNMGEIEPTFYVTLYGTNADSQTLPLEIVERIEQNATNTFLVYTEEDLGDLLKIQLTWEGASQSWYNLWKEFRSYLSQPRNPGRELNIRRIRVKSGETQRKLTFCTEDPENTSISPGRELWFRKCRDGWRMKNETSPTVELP

SMILES	IC50 [nM]	IC50 [1] [nM]
CS(=O)(=O)C(C(=O)NCC(=O)NC1CC1)c1nc2cc(F)c(-c3cccc(NC(=O)OCc4ccccc4)c3)cc2s1 (stereo not shown) [Example 550, benzyl N-{3-[2-({[(cyclopropyl-carbamoyl)methyl]carbamoyl} (methanesulfonyl)methyl)-5-fluoro-1,3-benzothiazol-6-yl]phenyl} carbamate]	1	
COCCS(=O)(=O)C(C(=O)NCC(=O)NC1CC1)c1nc2cc(F)c(-c3ccc(NC(=O)OCc4ccccc4)nc3)cc2s1 (stereo not shown) [Example 551, benzyl N-{5-[2-({[(cyclopropyl-carbamoyl)methyl]carbamoyl}(2-methoxyethane-sulfonyl)methyl)-5-fluoro-1,3-benzothiazol-6-yl]pyridin-2-yl} carbamate]	1	
CS(=O)(=O)C(C(=O)NCC(=O)NC1CC1)c1nc2cc(F)c(-c3ccc(NC(=O)OCc4ccccc4)nc3)cc2s1 (stereo not shown) [Example 552, benzyl N-{5-[2-({[(cyclopropyl-carbamoyl)methyl]carbamoyl} (methanesulfonyl)methyl)-5-fluoro-1,3-benzothiazol-6-yl]pyridin-2-yl}carbamate]	1	
O=C(CNC(=O)C(c1nc2cc(F)c(-c3cccc(NC(=O)OCc4ccccc4)c3)cc2s1)S(=O)(=O)CCC(F)(F)F)NC1CC1 (stereo not shown) [Example 553, benzyl N-{3-[2-({[(cyclopropyl-carbamoyl)methyl]carbamoyl}(3,3,3-trifluoropropane-sulfonyl)methyl)-5-fluoro-1,3-benzothiazol-6-yl]phenyl} carbamate]	1	
O=C(CNC(=O)C(c1nc2cc(F)c(-c3ccc(NC(=O)OCc4ccccc4)nc3)cc2s1)S(=O)(=O)CCC(F)(F)F)NC1CC1 (stereo not shown) [Example 554, benzyl N-{5-[2-({[(cyclopropyl-carbamoyl)methyl]carbamoyl}(3,3,3-trifluoropropane-sulfonyl)methyl)-5-fluoro-1,3-benzothiazol-6-yl]pyridin-2-yl} carbamate]	3	
O=C(CNC(=O)C(c1nc2cc(F)c(-c3cccc(NC(=O)OCc4ccccc4)c3)cc2s1)S(=O)(=O)C1CC1)NC1CC1 (stereo not shown) [Example 555, benzyl N-(3-{2-[(cyclopropane-sulfonyl) ({[(cyclopropyl-carbamoyl)methyl]carbamoyl})methyl]-5-fluoro-1,3-benzothiazol-6-yl}phenyl) carbamate]	1	
O=C(CNC(=O)C(c1nc2cc(F)c(-c3ccc(NC(=O)OCc4ccccc4)nc3)cc2s1)S(=O)(=O)C1CC1)NC1CC1 (stereo not shown) [Example 556, benzyl N-(5-{2-[(cyclopropane-sulfonyl) ({[(cyclopropyl-carbamoyl)methyl]carbamoyl)methyl]-5-fluoro-1,3-benzothiazol-6-yl}pyridin-2-yl) carbamate]	15	
CC(C)S(=O)(=O)C(C(=O)NCC(=O)NC1CC1)c1nc2cc(F)c(-c3cccc(NC(=O)OCc4ccccc4)c3)cc2s1 (stereo not shown) [Example 557, benzyl N-{3-[2-({[(cyclopropyl-carbamoyl)methyl]carbamoyl} (propane-2-sulfonyl)methyl)-5-fluoro-1,3-benzothiazol-6-yl]phenyl}carbamate]	7	
COCCS(=O)(=O)C(C(=O)NCC(=O)NC1CC1)c1nc2ccc(-c3ccc(C(=O)NCC(C)(C)COC)cc3)cc2s1 (stereo not shown) [Example 559, 4-(2-(2-((2-(Cyclopropylamino)-2-oxoethyl)amino)-1-((2-methoxyethyl)sulfonyl)-2-oxoethyl)benzo[d]thiazol-6-yl)-N-(3-methoxy-2,2-dimethylpropyl)benzamide]		5.5
COCC(C)(C)NC(=O)c1ccc(-c2ccc3nc(C(C(=O)NCC(=O)NC4CC4)S(C)(=O)=O)sc3c2)cc1 (stereo not shown) [Example 560, 4-[2-({[(cyclopropyl-carbamoyl)methyl]carbamoyl} (methanesulfonyl)methyl)-1,3-benzothiazol-6-yl]-N-(1-methoxy-2-methylpropan-2-yl)benzamide]	2	
COCCS(=O)(=O)C(C(=O)NCC(=O)NC1CC1)c1nc2ccc(-c3ccc(C(=O)NC(C)(C)COC)cc3)cc2s1 (stereo not shown) [Example 561, 4-[2-({[(cyclopropyl-carbamoyl)methyl]carbamoyl}(2-methoxyethane-sulfonyl)methyl)-1,3-benzothiazol-6-yl]-N-(1-methoxy-2-methylpropan-2-yl)benzamide]	3	
COCCS(=O)(=O)C(C(=O)NCC(=O)NC1CC1)c1nc2ccc(-c3ccc(C(=O)N4CCO[C@@H](C)C4)cc3)cc2s1 (stereo partly drawn) [Example 562, N-[(cyclopropyl-carbamoyl)methyl]-2-(2-methoxyethane-sulfonyl)-2-(6-{4-[(2S)-2-methyl-morpholine-4-carbonyl]phenyl}-1,3-benzothiazol-2-yl)acetamide]	11	
CC1(O)CN(C(=O)c2ccc(-c3cc4sc(C(C(=O)NCC(=O)NC5CC5)S(=O)(=O)CCC(F)(F)F)nc4cc3F)cc2)C1 (stereo not shown) [Example 564, N-[(cyclopropyl-carbamoyl)methyl]-2-{5-fluoro-6-[4-(3-hydroxy-3-methylazetidine-1-carbonyl)phenyl]-1,3-benzothiazol-2-yl}-2-[3,3,3-trifluoropropane-sulfonyl)acetamide]	5	
COCCS(=O)(=O)C(C(=O)NCC(=O)NC1CC1)c1nc2cc(F)c(-c3ccc(C(=O)N4CC(C)(O)C4)cc3)cc2s1 (stereo not shown) [Example 565, N-[(cyclopropyl-carbamoyl)methyl]-2-{5-fluoro-6-[4-(3-hydroxy-3-methylazetidine-1-carbonyl)phenyl]-1,3-benzothiazol-2-yl}-2-(2-methoxyethane-sulfonyl)acetamide]	3	

Results, then the compound that gave them:

IC50 [nM]	IC50 [1] [nM]	SMILES
4		COCCS(=O)(=O)C(C(=O)NCC(=O)NC1CC1)c1nc2ccc(-c3ccc(C(=O)NCC(C)(C)OC)cc3)cc2s1 (stereo not shown) [Example 566, 4-[2-({[(cyclopropyl-carbamoyl)methyl]carbamoyl}(2-methoxyethane-sulfonyl)methyl)-1,3-benzothiazol-6-yl]-N-(2-methoxy-2-methylpropyl) benzamide]
4		CC(C)(O)CNC(=O)c1ccc(-c2ccc3nc(C(C(=O)NCC(=O)NC4CC4)S(C)(=O)=O)sc3c2)cc1 (stereo not shown) [Example 567, 4-[2-({[(cyclopropyl-carbamoyl)methyl]carbamoyl} (methanesulfonyl)methyl)-1,3-benzothiazol-6-yl]-N-(2-hydroxy-2-methylpropyl) benzamide]
9		COCCN(C)C(=O)c1ccc(-c2ccc3nc(C(C(=O)NCC(=O)NC4CC4)S(=O)(=O)CCOC)sc3c2)cc1F (stereo not shown) [Example 568, 4-[2-({[(cyclopropyl-carbamoyl)methyl]carbamoyl}(2-methoxyethane-sulfonyl)methyl)-1,3-benzothiazol-6-yl]-2-fluoro-N-(2-methoxyethyl)-N-methylbenzamide]
20		COCCS(=O)(=O)C(C(=O)NCC(=O)NC1CC1)c1nc2ccc(-c3ccc(C(=O)N4C[C@@H](C)O[C@@H](C)C4)cc3)cc2s1 (stereo partly drawn) [Example 569, N-[(cyclopropyl-carbamoyl)methyl]-2-(6-{4-[(2R,6S)-2,6-dimethyl-morpholine-4-carbonyl]phenyl}-1,3-benzothiazol-2-yl)-2-(2-methoxyethane-sulfonyl)acetamide]
4		C[C@@H]1CN(C(=O)c2ccc(-c3ccc4nc(C(C(=O)NCC(=O)NC5CC5)S(C)(=O)=O)sc4c3)cc2)C[C@H](C)O1 (stereo partly drawn) [Example 570, N-[(cyclopropyl-carbamoyl)methyl]-2-(6-{4-[(2R,6S)-2,6-dimethyl-morpholine-4-carbonyl]phenyl}-1,3-benzothiazol-2-yl)-2-methanesulfonyl-acetamide]
12		COC(C)(C)CNC(=O)c1ccc(-c2ccc3nc(C(C(=O)NCC(=O)NC4CC4)S(C)(=O)=O)sc3c2)cc1 (stereo not shown) [Example 571, 4-[2-({[(cyclopropyl-carbamoyl)methyl]carbamoyl} (methanesulfonyl)methyl)-1,3-benzothiazol-6-yl]-N-(2-methoxy-2-methylpropyl) benzamide]
	2.8	O=C(CNC(=O)C(c1nc2cc(F)c(-c3ccc(C(=O)NCCc4ccccc4)cc3)cc2s1)S(=O)(=O)CCC(F)(F)F)NC1CC1 (stereo not shown) [Example 572, 4-[2-({[(Cyclopropylcarbamoyl)methyl]carbamoyl}(3,3,3-trifluoropropanesulfonyl)methyl)-5-fluoro-1,3-benzothiazol-6-yl]-N-(2-phenylethyl)benzamide]
3		COCCS(=O)(=O)C(C(=O)NCC(=O)NC1CC1)c1nc2cc(F)c(-c3ccc(C(=O)NCCc4ccccc4)cc3)cc2s1 (stereo not shown) [Example 573, 4-[2-({[(cyclopropyl-carbamoyl)methyl]carbamoyl}(2-methoxyethane-sulfonyl)methyl)-5-fluoro-1,3-benzothiazol-6-yl]-N-(2-phenylethyl) benzamide]
	0.9	O=C(CCc1ccccc1)Nc1ccc(-c2cc3sc(C(C(=O)NCC(=O)NC4CC4)S(=O)(=O)CCC(F)(F)F)nc3cc2F)cc1 (stereo not shown) [Example 575, N-{4-[2-({[(Cyclopropylcarbamoyl)methyl]carbamoyl}(3,3,3-trifluoropropanesulfonyl)methyl)-5-fluoro-1,3-benzothiazol-6-yl]phenyl}-3-phenylpropanamide]
1		CS(=O)(=O)C(C(=O)NCC(=O)NC1CC1)c1nc2cc(F)c(-c3ccc(NC(=O)CCc4ccccc4)cc3)cc2s1 (stereo not shown) [Example 576, N-{4-[2-({[(cyclopropyl-carbamoyl)methyl]carbamoyl} (methanesulfonyl)methyl)-5-fluoro-1,3-benzothiazol-6-yl]phenyl}-3-phenyl-propanamide]
1		COCCS(=O)(=O)C(C(=O)NCC(=O)NC1CC1)c1nc2cc(F)c(-c3ccc(NC(=O)CCc4ccccc4)cc3)cc2s1 (stereo not shown) [Example 577, N-{4-[2-({[(cyclopropyl-carbamoyl)methyl]carbamoyl}(2-methoxyethane-sulfonyl)methyl)-5-fluoro-1,3-benzothiazol-6-yl]phenyl}-3-phenyl-propanamide]
